Results: paper PMC6166228 (ACS Omega, 2018)
pKi: −log10 of the molar value.

Tests used:
human AT1 receptor = target: T1, human AT1 receptor (Homo sapiens, UniProt P30556); type: binding
T1 sequence (P30556 1-359): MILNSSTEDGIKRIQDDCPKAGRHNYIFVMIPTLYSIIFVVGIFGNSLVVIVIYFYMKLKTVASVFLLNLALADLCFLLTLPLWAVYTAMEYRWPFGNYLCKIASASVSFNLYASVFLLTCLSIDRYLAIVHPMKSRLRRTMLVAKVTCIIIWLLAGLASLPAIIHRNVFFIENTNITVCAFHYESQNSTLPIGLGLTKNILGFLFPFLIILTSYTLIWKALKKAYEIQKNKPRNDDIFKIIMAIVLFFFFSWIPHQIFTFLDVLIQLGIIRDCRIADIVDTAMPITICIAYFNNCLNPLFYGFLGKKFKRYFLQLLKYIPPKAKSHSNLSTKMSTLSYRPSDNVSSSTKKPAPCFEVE

[1] = no species and reference not given; cited from earlier work

pKi (human AT1 receptor) | Compound | average half-life [1]
7.84 | CC(C)[C@@H](C(=O)O)N(Cc1ccc(-c2ccccc2-c2nnn[nH]2)cc1)C(=O)CCCCF [FV45, (S)-2-(N-((2′-(1H-Tetrazol-5-yl)-[1,1′-biphenyl]-4-yl)methyl)-5-fluoropentanamido)-3-methylbutanoic Acid] | –
– | CCCCC(=O)N(Cc1ccc(-c2ccccc2-c2nnn[nH]2)cc1)[C@H](C(=O)O)C(C)C [valsartan] | around 6 h
